Laboratory results taken from patent US6605606B1, “Solid forms of tin ethyl etiopurpurin and processes for producing such forms” (Miravant Pharmaceuticals, Inc., priority 2000, dated 2003).

Legend:
[1] = Light stability of SnET2 solid forms under visible light irradiation (XRPD and HPLC); format: physicochemical; conditions: for XRPD Result / Impurity Levels by HPLC Peak 1 (photooxidized product) / Impurity Levels by HPLC Peak 2 / Impurity Levels by HPLC Peak 3: solid
Experimental: Comparative stability studies were performed on crystalline Form I, crystalline Form II, disordered Form II and the amorphous form. Light stability studies were carried out in a closed, black 30×16×12 inch cabinet containing two 24-inch, 20-watt fluorescent bulbs as the light source. The samples were placed approximately 10 inches from the bulbs. Each sample consisted of approximately 30-mg of SnET2 in a 1-dram vial. Samples were removed at the time intervals indicated in Table 11, analyzed by XRPD and HPLC.

[2] = Relative thermodynamic stability of crystalline forms (slurry interconversion, XRPD); format: physicochemical; conditions: slurrying in dichloromethane, acetone and mixtures, ambient or 50° C.
Source text: Unsolvated, anhydrous, polymorphic forms of a compound differ in their free energies. A set of polymorphs may be ranked in order of thermodynamic stability under a given set of pressure and temperature conditions. […] Production of the stable form is said to occur under thermodynamic conditions. […] Phys. Chem. 22:306 (1897)]. […] Kinetic and thermodynamic conditions differ in the amount of energy utilized. While the absolute amount depends on the compound in question, relatively speaking, kinetic conditions involve lower temperatures and shorter reaction times while thermodynamic conditions involve higher temperatures and longer reaction times.
Under subdued lighting, a slurry containing a 1:1 mixture of SnET2 crystalline Form I and SnET2 crystalline Form II (100-200 mg each) in 1-3 mL of a solvent, listed in Table 13 below, was agitated in a tightly-capped tube at ambient temperature or at 50° C. The undissolved solid was collected by filtration and found, by XRPD analysis, to be crystalline Form II.

[3] = visible light (two 20-watt fluorescent bulbs, approx. 10 inches), 0 days
[4] = visible light irradiation, 0 days
[5] = visible light irradiation, 2 days
[6] = visible light irradiation, 4 days
[7] = visible light irradiation, 6 days
[8] = visible light irradiation, 8 days
[9] = visible light irradiation, 19 days
[10] = visible light irradiation, 29 days

XRPD Result [1, 3] | Impurity Levels by HPLC Peak 1 (photooxidized product) [1, 4] | Impurity Levels by HPLC Peak 2 [1, 4] | Impurity Levels by HPLC Peak 3 [1, 4] | Impurity Levels by HPLC Peak 1 (photooxidized product) [1, 5] | Impurity Levels by HPLC Peak 2 [1, 5] | Impurity Levels by HPLC Peak 3 [1, 5] | XRPD Result [1, 5] | Impurity Levels by HPLC Peak 1 (photooxidized product) [1, 6] | Impurity Levels by HPLC Peak 2 [1, 6] | Impurity Levels by HPLC Peak 3 [1, 6] | XRPD Result [1, 6] | Impurity Levels by HPLC Peak 1 (photooxidized product) [1, 7] | Impurity Levels by HPLC Peak 2 [1, 7] | Impurity Levels by HPLC Peak 3 [1, 7] | XRPD Result [1, 7] | Impurity Levels by HPLC Peak 1 (photooxidized product) [1, 8] | Impurity Levels by HPLC Peak 2 [1, 8] | Impurity Levels by HPLC Peak 3 [1, 8] | XRPD Result [1, 8] | Substance | also measured
Amorphous | 1.62 | 0.70 | 0.00 | 6.60 | 0.71 | 0.03 | Amorphous | 9.78 | 0.73 | 0.15 | Amorphous | 1.84 | 0.11 | 0.23 | Amorphous | 12.66 | 0.70 | 0.27 | Amorphous | Tin ethyl etiopurpurin [Amorphous] | rate of photoproduct formation by HPLC ([1]; exposed to visible light, compared with the other solid forms): produced more rapidly in the amorphous form than any other form; Impurity Levels by HPLC Peak 1 (photooxidized product) [1, 9]: 14.13; Impurity Levels by HPLC Peak 2 [1, 9]: 0.73; Impurity Levels by HPLC Peak 3 [1, 9]: 0.38; XRPD Result [1, 9]: Amorphous; Impurity Levels by HPLC Peak 1 (photooxidized product) [1, 10]: 18.72; Impurity Levels by HPLC Peak 2 [1, 10]: 0.76; Impurity Levels by HPLC Peak 3 [1, 10]: 0.38; XRPD Result [1, 10]: Amorphous
Crystalline | 0.00 | 0.23 | 0.00 | 0.44 | 0.23 | 0.04 | Crystalline | 0.56 | 0.24 | 0.09 | Crystalline | 0.82 | 0.21 | 0.10 | Crystaliine | 0.96 | 0.21 | 0.15 | Crystalline | Tin ethyl etiopurpurin [Crystalline Form II] | relative (thermodynamic) stability of crystalline forms [2]: thermodynamically more stable form; relative (thermodynamic) stability of crystalline forms ([2]; listed as crystalline Form II): more stable than crystalline Form I; Impurity Levels by HPLC Peak 1 (photooxidized product) [1, 9]: 1.12; Impurity Levels by HPLC Peak 2 [1, 9]: 0.18; Impurity Levels by HPLC Peak 3 [1, 9]: 0.14; XRPD Result [1, 9]: Crystalline; Impurity Levels by HPLC Peak 1 (photooxidized product) [1, 10]: 1.68; Impurity Levels by HPLC Peak 2 [1, 10]: 0.17; Impurity Levels by HPLC Peak 3 [1, 10]: 0.11; XRPD Result [1, 10]: Crystalline
Crystalline | 0.20 | 0.15 | 0.0 | 0.89 | 0.16 | 0.0 | Crystalline | 9.61 | 0.84 | 0.0 | Crystalline | 2.16 | 0.14 | 0.09 | Crystalline | 1.87 | 0.15 | 0.13 | Crystalline | Tin ethyl etiopurpurin [Crystalline Form I] | Impurity Levels by HPLC Peak 1 (photooxidized product) [1, 9]: 2.39; Impurity Levels by HPLC Peak 2 [1, 9]: 0.34; Impurity Levels by HPLC Peak 3 [1, 9]: 0.17; XRPD Result [1, 9]: Crystalline; Impurity Levels by HPLC Peak 1 (photooxidized product) [1, 10]: 4.47; Impurity Levels by HPLC Peak 2 [1, 10]: 0.11; Impurity Levels by HPLC Peak 3 [1, 10]: 0.21; XRPD Result [1, 10]: Crystalline
Disordered FII | 0.65 | 0.10 | 0.19 | 1.24 | 0.13 | 0.19 | Disordered FII | 1.98 | 0.09 | 0.27 | Disordered FII | 2.51 | 0.11 | 0.28 | Disordered FII | 1.77 | 0.12 | 0.28 | Disordered FII | Tin ethyl etiopurpurin [Disordered Form II] | Impurity Levels by HPLC Peak 1 (photooxidized product) [1, 9]: 3.54; Impurity Levels by HPLC Peak 2 [1, 9]: 0.06; Impurity Levels by HPLC Peak 3 [1, 9]: 0.32; XRPD Result [1, 9]: Disordered FII; Impurity Levels by HPLC Peak 1 (photooxidized product) [1, 10]: 4.92; Impurity Levels by HPLC Peak 2 [1, 10]: 0.10; Impurity Levels by HPLC Peak 3 [1, 10]: 0.51; XRPD Result [1, 10]: Disordered FII
